Converted amounts (≈) assume the structure as drawn.
What was measured:
Format in all cases: cell-based
[1] = test system: Torulopsis glabrata; assay: Antimycotic in-vitro activity, serial dilution test (MIC); conditions: Nakaseomyces glabratus; Reihenverdünnungstest, 5 x 10^4 Keimen/ml Substrat, Fleischextrakt-Traubenzucker-Bouillon, 20°C, 24 bis 96 Stunden; read-out: MHK-Werte in γ/ml Nährmedium, Torulopsis glabrata
Procedure: (§1) Versuchsbeschreibung: • Die in-vitro-Prüfungen wurden im Reihenverdünnungstest mit Keiminokula von durchschnittlich 5 x 10^4 Keimen/ml Substrat durchgeführt. Als Nährmedium dienten • a) für Dermatophyten und Schimmelpilze: Sabourand's milieu d'epreuve • b) für Hefen: • Fleischextrakt-Traubenzucker-Bouillon.
(§2) Die Bebrütungstemperatur betrug 20°C, die Bebrütungsdauer lag bei 24 bis 96 Stunden bei Hefen und 96 Stunden bei Dermatophyten und Schimmelpilzen.

[2] = test system: Aspergillus fumig.; assay: as above; conditions: 96 h, Reihenverdünnungstest, 5 x 10^4 Keimen/ml Substrat, Sabourand's milieu d'epreuve, 20°C, 96 Stunden, read-out: MHK-Werte in γ/ml Nährmedium, Aspergillus fumig.
Procedure: as §1, §2

[3] = test system: Microsporum canis; assay: as above; conditions: 96 h, Reihenverdünnungstest, 5 x 10^4 Keimen/ml Substrat, Sabourand's milieu d'epreuve, 20°C, 96 Stunden, read-out: MHK-Werte in γ/ml Nährmedium, Microsporum canis
Procedure: as §1, §2

[4] = test system: Trichophyton mentagr.; assay: as above; conditions: 96 h, Reihenverdünnungstest, 5 x 10^4 Keimen/ml Substrat, Sabourand's milieu d'epreuve, 20°C, 96 Stunden, read-out: MHK-Werte in γ/ml Nährmedium, Trichophyton mentagr.
Procedure: as §1, §2

[5] = test system: Candida albicans; assay: as above; conditions: Reihenverdünnungstest, 5 x 10^4 Keimen/ml Substrat, Fleischextrakt-Traubenzucker-Bouillon, 20°C, 24 bis 96 Stunden, read-out: MHK-Werte in γ/ml Nährmedium, Candida albicans
Procedure: as §1, §2

[6] = test system: Dermatophyten, Schimmelpilze, Hefen; assay: Antimycotic in-vitro activity, serial dilution test, overall comparison with prior art; conditions: in-vitro Reihenverdünnungstest
Procedure: as §1, §2

| Structure (SMILES) | MIC [1] | MIC [2] | MIC [3] | MIC [4] | MIC [5] | antimykotische Wirkung im Vergleich zu den bekannten Verbindungen (A) und (B) [6] |
| --- | --- | --- | --- | --- | --- | --- |
| CCOCC(C)(C)C(O)C(Cc1ccc(Cl)c(Cl)c1)n1cncn1 (centres unmarked) [Beispiel 86] | 32 mg/L (≈ 86 µM) | 8 mg/L (≈ 21.5 µM) | 4 mg/L (≈ 10.7 µM) | 2 mg/L (≈ 5.37 µM) | 16 mg/L (≈ 43 µM) | bessere antimykotische Wirkung |
| CCCCC(C(O)C(C)(C)Oc1ccc(C(=O)OCC)cc1)n1cncn1 (centres unmarked) [Beispiel 62] | 32 mg/L (≈ 85.2 µM) | 8 mg/L (≈ 21.3 µM) | 8 mg/L (≈ 21.3 µM) | 2 mg/L (≈ 5.33 µM) | 8 mg/L (≈ 21.3 µM) | bessere antimykotische Wirkung |
| C=CCC(C(O)C(C)(C)Oc1ccc(Cl)cc1Cl)n1cncn1 (centres unmarked) [Beispiel 53] | 32 mg/L (≈ 89.8 µM) | 8 mg/L (≈ 22.5 µM) | 2 mg/L (≈ 5.61 µM) | 2 mg/L (≈ 5.61 µM) | 4 mg/L (≈ 11.2 µM) | bessere antimykotische Wirkung |
| COCC(C)(C)C(O)C(Cc1ccc(Cl)cc1Cl)n1cncn1 (centres unmarked) [Beispiel 7] | 16 mg/L (≈ 44.7 µM) | 64 mg/L (≈ 179 µM) | 8 mg/L (≈ 22.3 µM) | 8 mg/L (≈ 22.3 µM) | 8 mg/L (≈ 22.3 µM) | bessere antimykotische Wirkung |
| C=CCC(C(O)C(C)(C)Oc1ccc(Cl)cc1)n1cncn1 (centres unmarked) [Beispiel 56] | 8 mg/L (≈ 24.9 µM) | 8 mg/L (≈ 24.9 µM) | 4 mg/L (≈ 12.4 µM) | 8 mg/L (≈ 24.9 µM) | 4 mg/L (≈ 12.4 µM) | bessere antimykotische Wirkung |
| CCC(C(O)C(C)(C)Oc1ccc(Cl)cc1)n1cncn1 (centres unmarked) [Beispiel 57] | 32 mg/L (≈ 103 µM) | 32 mg/L (≈ 103 µM) | 8 mg/L (≈ 25.8 µM) | 8 mg/L (≈ 25.8 µM) | 8 mg/L (≈ 25.8 µM) | bessere antimykotische Wirkung |
| CCOCC(C)(C)C(O)C(Cc1ccc(Cl)cc1)n1cncn1 (centres unmarked) [Beispiel 42] | 16 mg/L (≈ 47.4 µM) | 8 mg/L (≈ 23.7 µM) | 8 mg/L (≈ 23.7 µM) | < 1 mg/L | 2 mg/L (≈ 5.92 µM) | bessere antimykotische Wirkung |
| C=CCCC(C(O)C(C)(C)COc1ccc(Cl)c(Cl)c1)n1cncn1 (centres unmarked) [Beispiel 95] | 32 mg/L (≈ 83.3 µM) | 8 mg/L (≈ 20.8 µM) | < 1 mg/L | < 1 mg/L | 2 mg/L (≈ 5.2 µM) | bessere antimykotische Wirkung |
| COCC(C)(C)C(O)C(Cc1ccc(Cl)cc1)n1cncn1 (centres unmarked) [Beispiel 9] | 32 mg/L (≈ 98.8 µM) | 16 mg/L (≈ 49.4 µM) | 4 mg/L (≈ 12.4 µM) | 4 mg/L (≈ 12.4 µM) | 8 mg/L (≈ 24.7 µM) | bessere antimykotische Wirkung |
| CCOC(=O)c1ccc(OC(C)(C)C(O)C(Cc2ccc(Cl)cc2Cl)n2cncn2)cc1 (centres unmarked) [Beispiel 64] | 64 mg/L (≈ 134 µM) | 64 mg/L (≈ 134 µM) | 2 mg/L (≈ 4.18 µM) | 4 mg/L (≈ 8.36 µM) | < 1 mg/L | bessere antimykotische Wirkung |

Stronger by MIC [1], values ahead:

| MIC [1] | MIC [2] | MIC [3] | MIC [4] | MIC [5] | Structure (SMILES) | antimykotische Wirkung im Vergleich zu den bekannten Verbindungen (A) und (B) [6] |
| --- | --- | --- | --- | --- | --- | --- |
| 4 mg/L (≈ 7.56 µM) | 32 mg/L (≈ 60.5 µM) | 8 mg/L (≈ 15.1 µM) | < 1 mg/L | < 1 mg/L | CC(C)(COc1ccc(Br)cc1)C(O)C(CCOc1ccc(Cl)cc1Cl)n1cncn1 (centres unmarked) [Beispiel 45] | bessere antimykotische Wirkung |
| < 1 mg/L | > 64 mg/L | 4 mg/L (≈ 9.08 µM) | < 1 mg/L | < 1 mg/L | CC(C)(Oc1ccc(Cl)cc1)C(O)C(Cc1ccc(Cl)cc1Cl)n1cncn1 (centres unmarked) [Beispiel 27] | bessere antimykotische Wirkung |
| 4 mg/L (≈ 11.8 µM) | 16 mg/L (≈ 47.4 µM) | 2 mg/L (≈ 5.92 µM) | 2 mg/L (≈ 5.92 µM) | < 1 mg/L | CCCCC(C(O)C(C)(C)Oc1ccc(Cl)cc1)n1cncn1 (centres unmarked) [Beispiel 52] | bessere antimykotische Wirkung |
| 2 mg/L (≈ 6.43 µM) | 16 mg/L (≈ 51.5 µM) | 2 mg/L (≈ 6.43 µM) | 8 mg/L (≈ 25.7 µM) | 2 mg/L (≈ 6.43 µM) | CC(C)(CSc1ccc(Cl)cc1)C(O)Cn1ccnc1 (centres unmarked) [Beispiel 3, 4-(4-Chlorphenylmercapto)-3,3-dimethyl-1-(imidazol-1-yl)-butan-2-ol] | bessere antimykotische Wirkung |
| < 1 mg/L | 4 mg/L (≈ 10 µM) | < 1 mg/L | < 1 mg/L | < 1 mg/L | Cc1ccc(CC(C(O)C(C)(C)COc2ccc(Cl)cc2)n2cncn2)cc1 (centres unmarked) [Beispiel 10] | bessere antimykotische Wirkung |
| 2 mg/L (≈ 5.44 µM) | > 64 mg/L | < 1 mg/L | < 1 mg/L | < 1 mg/L | CCCCC(C(O)C(C)(C)CSc1ccc(Cl)cc1)n1cncn1 (centres unmarked) [Beispiel 41] | bessere antimykotische Wirkung |
| < 1 mg/L | < 1 mg/L | 8 mg/L (≈ 18.3 µM) | < 1 mg/L | 32 mg/L (≈ 73.3 µM) | CC(C)(COc1ccc(Br)cc1)C(O)C(CC1CCCCC1)n1cncn1 (centres unmarked) [Beispiel 35] | bessere antimykotische Wirkung |
| 4 mg/L (≈ 9.08 µM) | > 64 mg/L | 4 mg/L (≈ 9.08 µM) | < 1 mg/L | < 1 mg/L | CC(C)(Oc1ccc(Cl)cc1)C(O)C(Cc1c(Cl)cccc1Cl)n1cncn1 (centres unmarked) [Beispiel 29] | bessere antimykotische Wirkung |
| 4 mg/L (≈ 10.6 µM) | 8 mg/L (≈ 21.2 µM) | 32 mg/L (≈ 84.7 µM) | 2 mg/L (≈ 5.29 µM) | < 1 mg/L | CC(C)(Oc1ccc(Cl)cc1)C(O)C(CC1CCCCC1)n1cncn1 (centres unmarked) [Beispiel 31] | bessere antimykotische Wirkung |
| 4 mg/L (≈ 10.7 µM) | 16 mg/L (≈ 43 µM) | 8 mg/L (≈ 21.5 µM) | 4 mg/L (≈ 10.7 µM) | < 1 mg/L | CCOCC(C)(C)C(O)C(Cc1ccc(Cl)cc1Cl)n1cncn1 (centres unmarked) [Beispiel 85] | bessere antimykotische Wirkung |
| 4 mg/L (≈ 11.3 µM) | 16 mg/L (≈ 45 µM) | 8 mg/L (≈ 22.5 µM) | 4 mg/L (≈ 11.3 µM) | < 1 mg/L | C=CCC(C(O)C(C)(C)Oc1ccc(Cl)cc1Cl)n1ccnc1 (centres unmarked) [Beispiel 66] | bessere antimykotische Wirkung |
| 4 mg/L (≈ 9.89 µM) | 32 mg/L (≈ 79.1 µM) | 8 mg/L (≈ 19.8 µM) | < 1 mg/L | < 1 mg/L | CC(C)(Cc1ccccc1)C(O)C(Cc1ccc(Cl)cc1Cl)n1cncn1 (centres unmarked) [Beispiel 83] | bessere antimykotische Wirkung |
| 4 mg/L (≈ 10.8 µM) | 8 mg/L (≈ 21.5 µM) | < 1 mg/L | < 1 mg/L | < 1 mg/L | CC(C)(Oc1ccc(Cl)cc1)C(O)C(Cc1ccccc1)n1cncn1 (centres unmarked) [Beispiel 26] | bessere antimykotische Wirkung |
| 4 mg/L (≈ 9.52 µM) | < 1 mg/L | < 1 mg/L | < 1 mg/L | < 1 mg/L | CC(C)(CSc1ccc(Cl)cc1)C(O)C(Cc1ccc(F)cc1)n1cncn1 (centres unmarked) [Beispiel 40] | – |
| < 1 mg/L | 64 mg/L (≈ 136 µM) | 16 mg/L (≈ 34 µM) | < 1 mg/L | < 1 mg/L | CC(C)(CSc1ccc(Cl)cc1)C(O)C(Cc1ccc(Cl)cc1Cl)n1cncn1 (centres unmarked) [Beispiel 39] | bessere antimykotische Wirkung |

Reference: patent EP0083750A1, “Antimycotic azolyl butanols” (BAYER AG, priority 1981, dated 1983)
